This passage reports inhibition results from patent publication US7919517B2, “Indazole derivatives” (Kyowa Hakko Kirin Co., Ltd., priority 2003, dated 2011).

Where a name gives a salt, the structure may show the parent alone.

Holding throughout (type): cell-based
The test system of assay [1] is human colon cancer cell line Colo205. As to the kind of experiment: Cytostatic activity on solid carcinoma cell line Colo205 (WST-1). The following applies: Homo sapiens, COLO 205; 10 μmol/L, 72 hours, Colo205 cells; read-out: cytostatic rate Colo205 (%) (10 μmol/L). As for the experimental part: (§1) Each cell was cultured using Roswell Park Memorial Institute's Medium (RPMI) 1640 (Gibco, Catalog No. 11875-093) containing 10% fetal bovine serum (Gibco, Catalog No. 10437-028) and 1% penicillin/streptomycin (1:1) (Gibco, Catalog No. 15140-122). Each 80 μL of the MV-4-11 cell having a concentration of 7.5×10^4 cells/mL (or the ML-1 cell or K562 cell having a concentration of 2.5×10^4 cells/mL) was inoculated to wells of a TC MICROWELL 96U plate (Nalge Nunc International, Catalog No. 163320) and was cultured in a 5% carbon dioxide gas incubator at 37° C. for 4 hours. As a blank, only RPMI medium (80 μL) was added to a well. Each 20 μL of a solution of the test compound in dimethyl sulfoxide (DMSO) which was prepared to make the final concentration to 10 μmol/L, was added to the MV-4-11 cell, ML-1 cell and K562 cell, respectively. Each 20 μL of DMSO was added to the control well and the blank well to […]. After adding the test compound, the cells were incubated in a 5% carbon dioxide gas incubator at 37° C. for 72 hours. After adding 20 μL of WST-1 reagent {4-[3-(4-iodophenyl)-2-(4-nitrophenyl)-2H-5-tetrazolio]-1,3-benzene disulfonate sodium salt} (Roche Diagnostics K.K., Catalog No. 1644807) diluted to 50% with RPMI medium, the cells were further incubated at 37° C. for 2 hours. Then, the absorbances at 450 nm (reference wavelength: 690 nm) were determined with a microplate spectrophotometer SPECTRA max 340PC (Molecular Devices Corporation). The relative growth (%) of a well to which the test compound had been added was determined while setting the absorbance of a well to which not the test compound but DMSO alone had been added (control) at 100% and that of a well containing RPMI medium alone at 0%. The cytostatic rate (%) of the test compound was determined by subtracting the calculated relative growth from 100.
The cytostatic rate of a test compound on the human colon cancer cell line Colo205 was determined in the following manner.
The cell was cultured using Roswell Park Memorial Institute's Medium (RPMI) 1640 (Gibco, Catalog No. 11875-093) containing 10% fetal bovine serum (Gibco, Catalog No. 10437-028) and 1% penicillin/streptomycin (1:1) (Gibco, Catalog No. 15140-122). Each 80 μL of the Colo205 having a concentration of 1.25×10^4 cells/mL was inoculated to wells of a TC MICROWELL 96F plate (Nalge Nunc International, Catalog No. 167008) and was cultured in a 5% carbon dioxide gas incubator at 37° C. for 24 hours. As a blank, only RPMI (80 μL) was added to a well. Each 20 μL of a solution of the test compound in DMSO which was prepared to make the final concentration to 10 μmol/L, was added to the Colo205 cell. Each 20 μL of DMSO was added to the control well and the blank well to […]. After adding the test compound, the cell was incubated in a 5% carbon dioxide gas incubator at 37° C. for 72 hours. The cytostatic rate (%) was then determined in the same way as the leukemia cell lines.
Background: Tetrazolium dyes change colour on reduction, which living cells bring about.

Assay [2] has as its system human acute myeloid leukemia cell line MV-4-11. The experiment in a line: Cytostatic activity on leukemia cell line MV-4-11 (WST-1). The following applies: Homo sapiens, MV4-11; 10 μmol/L, 72 hours, MV-4-11 cells; read-out: cytostatic rate MV-4-11 (%) (10 μmol/L). The protocol: (§2) The cytostatic rates of a test compound on human acute myeloid leukemia cell lines MV-4-11 and ML-1, and human chronic myeloid leukemia cell line K562 were determined in the following manner.
as §1

For assay [3], the system named is human chronic myeloid leukemia cell line K562. The experiment in a line: Cytostatic activity on leukemia cell line K562 (WST-1). The following applies: Homo sapiens; 10 μmol/L, 72 hours, K562 cells; read-out: cytostatic rate K562 (%) (10 μmol/L). The protocol:
as §2, §1

Assay [4] concerns human acute myeloid leukemia cell line ML-1. As to the kind of experiment: Cytostatic activity on leukemia cell line ML-1 (WST-1). Conditions: Homo sapiens, ML1; 10 μmol/L, 72 hours, ML-1 cells; read-out: cytostatic rate ML-1 (%) (10 μmol/L). The protocol:
as §2, §1

Consider `CC(C)C(=O)N1CCN(C(=O)c2ccc(/C=C/c3n[nH]c4ccccc34)cc2)CC1` [Compound 56, (E)-4-isobutyryl-1-{4-[2-(1H-indazol-3-yl)vinyl]benzoyl}piperazine], for which the inhibition at 10 µM came to 88% in assay [1], 98% in assay [2], 87% in assay [3] and 78% in assay [4].

Regarding `O=C(c1ccc(/C=C/c2n[nH]c3ccccc23)cc1)N1CCN(C(=O)c2ccsc2)CC1` [Compound 58, (E)-4-(3-thiophenecarbonyl)-1-{4-[2-(1H-indazol-3-yl)vinyl]benzoyl}piperazine], the inhibition at 10 µM in assay [1] was determined as 85%; in assay [2], 96%; in assay [3], 89%; in assay [4] it was 74%.

Consider `NCC(=O)N1CCN(C(=O)c2ccc(/C=C/c3n[nH]c4ccccc34)cc2)CC1` [Compound 61, (E)-4-aminoacetyl-1-{4-[2-(1H-indazol-3-yl)vinyl]benzoyl}piperazine hydrochloride], for which the inhibition at 10 µM stood at 87% in assay [1], 98% in assay [2], 85% in assay [3] and 79% in assay [4].

On to `CCN(CC)CCNC(=O)c1ccc(/C=C/c2n[nH]c3ccccc23)cc1` [Compound 63, (E)-N-[2-(diethylamino)ethyl]-4-[2-(1H-indazol-3-yl)vinyl]benzamide], for which the inhibition at 10 µM in assay [1] is 88%; in assay [2] it was 98%; in assay [3] it was 76%; in assay [4], 87%.

Consider `NC1CCN(C(=O)c2ccc(/C=C/c3n[nH]c4ccccc34)cc2)CC1` [Compound 64, (E)-1-{4-[2-(1H-indazol-3-yl)vinyl]benzoyl}-4-aminopiperidine], for which the inhibition at 10 µM in assay [1] amounted to 94%; in assay [2], 98%; in assay [3] it was 91%; in assay [4], 89%.

Regarding `COCC(=O)N1CCN(C(=O)c2ccc(/C=C/c3n[nH]c4ccccc34)cc2)CC1` [Compound 65, (E)-4-methoxyacetyl-1-{4-[2-(1H-indazol-3-yl)vinyl]benzoyl}piperazine], the inhibition at 10 µM was 88% in assay [1], 97% in assay [2], 85% in assay [3] and 86% in assay [4].

As for `CC(C)CC(=O)N1CCN(C(=O)c2ccc(/C=C/c3n[nH]c4ccccc34)cc2)CC1` [Compound 66, (E)-4-(3-methylbutyryl)-1-{4-[2-(1H-indazol-3-yl)vinyl]benzoyl}piperazine], the inhibition at 10 µM in assay [1] was 83%; in assay [2], 99%; in assay [3] it was 89%; in assay [4], 74%.

`CC(C)(O)C(=O)N1CCN(C(=O)c2ccc(/C=C/c3n[nH]c4ccccc34)cc2)CC1` [Compound 68, (E)-4-(2-methyl-2-hydroxypropionyl)-1-{4-[2-(1H-indazol-3-yl)vinyl]benzoyl}piperazine]: the inhibition at 10 µM amounted to 90% in assay [1], 97% in assay [2], 91% in assay [3] and 79% in assay [4].

Regarding `CC(C)(CO)C(=O)N1CCN(C(=O)c2ccc(/C=C/c3n[nH]c4ccccc34)cc2)CC1` [Compound 72, (E)-4-(3-hydroxy-2,2-dimethylpropionyl)-1-{4-[2-(1H-indazol-3-yl)vinyl]benzoyl}piperazine], the inhibition at 10 µM came out at 93% in assay [1], 100% in assay [2], 95% in assay [3] and 80% in assay [4].

In the case of `CC(=O)N1CCN(C(=O)c2ccc(/C=C/c3n[nH]c4ccccc34)cc2C)CC1` [Compound 73, (E)-4-acetyl-1-{2-methyl-4-[2-(1H-indazol-3-yl)vinyl]benzoyl}piperazine], the inhibition at 10 µM in assay [1] was found to be 89%; in assay [2] it was 97%; in assay [3], 68%; in assay [4] it was 87%.

With `COC(=O)N1CCN(C(=O)c2ccc(/C=C/c3n[nH]c4ccccc34)cc2)CC1` [Compound 75, (E)-4-methoxycarbonyl-1-{4-[2-(1H-indazol-3-yl)vinyl]benzoyl}piperazine hydrochloride], the inhibition at 10 µM in assay [1] turned out to be 88%; in assay [2], 99%; in assay [3] it was 85%; in assay [4] it was 88%.

On to `CC1(C(=O)N2CCN(C(=O)c3ccc(/C=C/c4n[nH]c5ccccc45)cc3)CC2)CC1` [Compound 77, (E)-4-(1-methylcyclopropanecarbonyl)-1-{4-[2-(1H-indazol-3-yl)vinyl]benzoyl}piperazine], for which the inhibition at 10 µM in assay [1] was found to be 86%; in assay [2] it was 98%; in assay [3] it was 95%; in assay [4], 80%.

Regarding `CC(C)(C)CC(=O)N1CCN(C(=O)c2ccc(/C=C/c3n[nH]c4ccccc34)cc2)CC1` [Compound 78, (E)-4-(3,3-dimethylbutyryl)-1-{4-[2-(1H-indazol-3-yl)vinyl]benzoyl}piperazine], the inhibition at 10 µM in assay [1] stood at 82%; in assay [2], 98%; in assay [3], 90%; in assay [4], 64%.

`CCN(CC)C(=O)C1CCN(C(=O)c2ccc(/C=C/c3n[nH]c4ccccc34)cc2)CC1` [Compound 81, (E)-N,N-diethyl-1-{4-[2-(1H-indazol-3-yl)vinyl]benzoyl}piperidine-4-carboxamide]: the inhibition at 10 µM in assay [1] is 85%; in assay [2], 98%; in assay [3], 95%; in assay [4], 77%.

For `O=C(c1ccc(/C=C/c2n[nH]c3ccccc23)cc1)N1CCCNCC1` [Compound 85, (E)-1-{4-[2-(1H-indazol-3-yl)vinyl]benzoyl}homopiperazine dihydrochloride], the inhibition at 10 µM in assay [1] stood at 89%; in assay [2], 99%; in assay [3] it was 90%; in assay [4] it was 78%.

On to `NC(=O)C1CCN(C(=O)c2ccc(/C=C/c3n[nH]c4ccccc34)cc2)CC1` [Compound 86, (E)-1-{4-[2-(1H-indazol-3-yl)vinyl]benzoyl}piperidine-4-carboxamide], for which the inhibition at 10 µM in assay [1] was found to be 89%; in assay [2] it was 98%; in assay [3] it was 88%; in assay [4] it was 87%.

Consider `O=C(c1ccc(/C=C/c2n[nH]c3ccccc23)cc1)N1CCC(O)CC1` [Compound 87, (E)-1-{4-[2-(1H-indazol-3-yl)vinyl]benzoyl}-4-hydroxypiperidine], for which the inhibition at 10 µM turned out to be 86% in assay [1], 99% in assay [2], 76% in assay [3] and 88% in assay [4].

In the case of `O=C1CN(C(=O)c2ccc(/C=C/c3n[nH]c4ccccc34)cc2)CCN1` [Compound 89, (E)-4-{4-[2-(1H-indazol-3-yl)vinyl]benzoyl}piperazin-2-one], the inhibition at 10 µM in assay [1] worked out at 92%; in assay [2], 98%; in assay [3] it was 61%; in assay [4] it was 86%.
